According to ChEMBL document CHEMBL1909631, “Synthesis and anti-inflammatory activity of some new 4,5-dihydro-1,5-diaryl-1H-pyrazole-3-substituted-heteroazole derivatives” (Bioorg Med Chem Lett, 2011):

What was measured:
[1] = test system: Rattus norvegicus; experiment: Antiinflammatory activity in Wistar rat assessed as protection against carrageenan-induced paw edema at 100 mg/kg, po administered 1 hr before carrageenan challenge measured after 4 hrs relative to control; format: functional
[2] = test system: Rattus norvegicus; experiment: Analgesic activity in Wistar rat assessed as inhibition of acetic acid-induced writhing at 100 mg/kg, po administered 1 hr before acetic acid challenge measured after 30 mins relative to control; format: functional
[3] = target: T1, Prostaglandin G/H synthase 2 (Homo sapiens) (UniProt P35354); experiment: Inhibition of COX2 in human whole blood at 10 uM
T1 sequence (whole entry): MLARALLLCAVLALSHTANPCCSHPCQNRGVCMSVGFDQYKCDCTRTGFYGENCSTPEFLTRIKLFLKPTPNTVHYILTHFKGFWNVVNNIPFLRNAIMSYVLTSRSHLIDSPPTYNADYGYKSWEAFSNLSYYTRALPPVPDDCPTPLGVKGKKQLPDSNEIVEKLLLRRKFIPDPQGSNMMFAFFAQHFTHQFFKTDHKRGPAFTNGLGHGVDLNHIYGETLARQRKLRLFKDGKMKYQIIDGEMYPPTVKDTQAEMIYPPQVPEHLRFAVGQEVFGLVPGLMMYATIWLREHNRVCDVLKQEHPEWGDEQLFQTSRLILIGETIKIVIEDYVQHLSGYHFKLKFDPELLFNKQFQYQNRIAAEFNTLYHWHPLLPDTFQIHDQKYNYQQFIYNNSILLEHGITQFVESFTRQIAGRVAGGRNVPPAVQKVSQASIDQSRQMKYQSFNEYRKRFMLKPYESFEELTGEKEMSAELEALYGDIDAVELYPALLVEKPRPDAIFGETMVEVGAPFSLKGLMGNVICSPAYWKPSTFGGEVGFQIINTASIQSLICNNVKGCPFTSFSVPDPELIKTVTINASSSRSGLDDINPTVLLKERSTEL

[4] = test system: Rattus norvegicus; experiment: Ulcerogenicity in fasted Wistar rat assessed as ulceration at 300 mg/kg, po administered every 2 hrs; format: toxicity, organism-based; set-up: dose 300 mg/kg, route oral; conditions: in vivo

Row | SMILES | Activity [1] [%] | inhibition in vivo at 100 mg/kg [2] [%] | inhibition [3] [%] | Activity [4]
1 | FC(F)(F)c1nnc(C2=NN(c3ccccc3)C(c3ccc(Cl)cc3)C2)o1 (racemic) | -46.9 |  |  | 
2 | Oc1nc(C2=NN(c3ccccc3)C(c3ccc(Cl)cc3)C2)no1 (racemic) | 32.68 |  |  | 
3 | FC(F)(F)c1nc(C2=NN(c3ccccc3)C(c3ccc(Cl)cc3)C2)no1 (racemic) | 49.45 | 15.8 | 6 | Non-toxic
4 | O=C(O)c1nnc(C2=NN(c3ccccc3)C(c3ccc(Cl)cc3)C2)o1 (racemic) | -19.3 |  |  | 
5 | NS(=O)(=O)c1ccc(N2N=C(c3nnc(O)o3)CC2c2ccc(Cl)cc2)cc1 (racemic) | 35.38 |  |  | 
6 | Clc1ccc(C2CC(c3nn[nH]n3)=NN2c2ccccc2)cc1 (stereo not given) | 37.8 |  |  | 
7 | O=C([O-])Cc1ccccc1Nc1c(Cl)cccc1Cl.[Na+] [DICLOFENAC SODIUM] | 50.93 | 76.6 |  | Toxic
8 | O=C(O)c1nc(C2=NN(c3ccccc3)C(c3ccc(Cl)cc3)C2)no1 (racemic) | 14.4 |  |  | 
9 | NS(=O)(=O)c1ccc(N2N=C(c3nnc(S)o3)CC2c2ccc(Cl)cc2)cc1 (racemic) | 36.76 |  |  | 
10 | CCOC(=O)c1nc(C2=NN(c3ccccc3)C(c3ccc(Cl)cc3)C2)no1 (racemic) | 20.35 |  |  | 
11 | Oc1nnc(C2=NN(c3ccccc3)C(c3ccc(Cl)cc3)C2)o1 (racemic) | 24.26 |  |  | 
12 | CCOC(=O)Cc1nnc(C2=NN(c3ccccc3)C(c3ccc(Cl)cc3)C2)o1 (racemic) | -17.6 |  |  | 
13 | CCOC(=O)Cc1nc(C2=NN(c3ccccc3)C(c3ccc(Cl)cc3)C2)no1 (racemic) | 30.94 |  |  | 
14 | N#CC1=NN(c2ccccc2)C(c2ccc(Cl)cc2)C1 (racemic) | 39.43 |  |  | 
15 | Cc1nc(C2=NN(c3ccccc3)C(c3ccc(Cl)cc3)C2)no1 (racemic) | 49.24 | 23.7 | 4 | Non-toxic
16 | Nc1nnc(C2=NN(c3ccccc3)C(c3ccc(Cl)cc3)C2)o1 (racemic) | 4.5 |  |  | 

Row | SMILES | Activity [1] [%] | inhibition in vivo at 100 mg/kg [2] [%] | inhibition [3] [%] | Activity [4]
17 | Sc1nc(C2=NN(c3ccccc3)C(c3ccc(Cl)cc3)C2)no1 (stereo not given) | 40.51 |  |  | 
18 | Nc1nnc(C2=NN(c3ccc(S(N)(=O)=O)cc3)C(c3ccc(Cl)cc3)C2)o1 (racemic) | 18.38 |  |  | 
19 | O=C(O)Cc1nc(C2=NN(c3ccccc3)C(c3ccc(Cl)cc3)C2)no1 (racemic) | 7.08 |  |  | 
20 | O=C(O)Cc1nnc(C2=NN(c3ccccc3)C(c3ccc(Cl)cc3)C2)o1 (racemic) | 7.46 |  |  | 
21 | CCOC(=O)c1nnc(C2=NN(c3ccccc3)C(c3ccc(Cl)cc3)C2)o1 (racemic) | 4.5 |  |  | 
22 | Cc1nnc(C2=NN(c3ccccc3)C(c3ccc(Cl)cc3)C2)o1 (racemic) | 16.45 |  |  | 
23 | Sc1nnc(C2=NN(c3ccccc3)C(c3ccc(Cl)cc3)C2)o1 (racemic) | 32.74 |  |  | 
24 | NS(=O)(=O)c1ccc(N2N=C(c3noc(S)n3)CC2c2ccc(Cl)cc2)cc1 (racemic) | 48.82 |  |  | 
25 | CSc1nnc(C2=NN(c3ccc(S(N)(=O)=O)cc3)C(c3ccc(Cl)cc3)C2)s1 (racemic) | 26.12 |  |  | 
26 | N#CC1=NN(c2ccc(S(N)(=O)=O)cc2)C(c2ccc(Cl)cc2)C1 (racemic) | 49.67 |  |  | 
27 | NS(=O)(=O)c1ccc(N2N=C(c3nn[nH]n3)CC2c2ccc(Cl)cc2)cc1 (racemic) | 54.58 | 30.1 | 7 | Non-toxic
28 | Cn1nnc(C2=NN(c3ccccc3)C(c3ccc(Cl)cc3)C2)n1 (racemic) | 34.31 |  |  | 
29 | NS(=O)(=O)c1ccc(N2N=C(c3noc(O)n3)CC2c2ccc(Cl)cc2)cc1 (racemic) | 46.18 |  |  | 
30 | CSc1nnc(C2=NN(c3ccccc3)C(c3ccc(Cl)cc3)C2)s1 (racemic) | 11.84 |  |  | 
31 | Cn1nnc(C2=NN(c3ccc(S(N)(=O)=O)cc3)C(c3ccc(Cl)cc3)C2)n1 (racemic) | 48.58 | 23.7 | 11 | Non-toxic
